Like-named read-outs stand apart in the source and are kept apart here.
Assays:
[1] = for change of plasma concentration without the deconjugation step (hydrolysis): rat plasma after 0.5 mg kg-1 MDPV ip or sc, with vs without hydrolysis; for plasma concentration, Without hydrolysis / plasma concentration, Hydrolysis / plasma concentration range after intraperitoneal dosing / plasma concentration range after the subcutaneous dose: rat plasma; for plasma concentration, Without hydrolysis / plasma concentration, Hydrolysis: LOQ 0.25 μg L^−1; for plasma concentration, Hydrolysis: with hydrolysis; for plasma concentration range after intraperitoneal dosing: 0.5 mg kg^−1 MDPV intraperitoneal; for plasma concentration range after intraperitoneal dosing / plasma concentration range after the subcutaneous dose: samples 10-480 min after dosing; for plasma concentration range after the subcutaneous dose: 0.5 mg kg^−1 MDPV subcutaneous
[2] = Short-term stability in fortified plasma; assay type: physicochemical, human
[3] = cited from earlier work
[4] = ref 24 (Wang et al), cited from earlier work
monoamine transporter = details: in vitro transporter assays, similar to cocaine; ref 13 (Baumann et al.); cited from earlier work
[5] = 1,000 μg L^−1, room temp, 4°C and −20°C for 1 to 14 days; ref 29 (Johnson et al); cited from earlier work
[6] = ref 24 (Wang et al); cited from earlier work
[7] = 0.5 mg kg-1 MDPV ip, 0 min (before dosing)
[8] = 0.5 mg kg-1 MDPV sc, 0 min (before dosing)
[9] = High QC 750 μg L^−1, n=5, vs freshly fortified
[10] = Low QC 0.75 μg L^−1, n=5, vs freshly fortified
[11] = Medium QC 25 μg L^−1, n=5, vs freshly fortified

SMILES: CCCC(C(=O)c1ccc(O)c(OC)c1)N1CCCC1 (centres unmarked) [4-OH-3-MeO-PV, 4-hydroxy-3-methoxypyrovalerone]
- change of plasma concentration without the deconjugation step (hydrolysis) [1]: greatly decreased
- form present in rat plasma ([1]; rat plasma after MDPV, concluded from hydrolysis comparison): primarily present as the conjugated forms
- plasma concentration, Without hydrolysis [1, 7]: <LOQ
- plasma concentration, Hydrolysis ([1]; 0.5 mg kg-1 MDPV ip, 10 min): 9.3 ng/mL
- plasma concentration, Without hydrolysis ([1]; 0.5 mg kg-1 MDPV ip, 10 min): 0.9 ng/mL
- plasma concentration, Hydrolysis ([1]; 0.5 mg kg-1 MDPV ip, 20 min): 11.8 ng/mL
- plasma concentration, Without hydrolysis ([1]; 0.5 mg kg-1 MDPV ip, 20 min): 0.7 ng/mL
- plasma concentration, Hydrolysis ([1]; 0.5 mg kg-1 MDPV ip, 30 min): 12.3 ng/mL
- plasma concentration, Without hydrolysis ([1]; 0.5 mg kg-1 MDPV ip, 30 min): 0.7 ng/mL
- plasma concentration, Hydrolysis ([1]; 0.5 mg kg-1 MDPV ip, 60 min): 14.1 ng/mL
- plasma concentration, Without hydrolysis ([1]; 0.5 mg kg-1 MDPV ip, 60 min): <LOQ
- plasma concentration, Hydrolysis ([1]; 0.5 mg kg-1 MDPV ip, 120 min): 68.9 ng/mL
- plasma concentration, Without hydrolysis ([1]; 0.5 mg kg-1 MDPV ip, 120 min): 0.5 ng/mL
- plasma concentration, Hydrolysis ([1]; 0.5 mg kg-1 MDPV ip, 240 min): 84.7 ng/mL
- plasma concentration, Without hydrolysis ([1]; 0.5 mg kg-1 MDPV ip, 240 min): 0.5 ng/mL
- plasma concentration, Hydrolysis ([1]; 0.5 mg kg-1 MDPV ip, 480 min): 23.6 ng/mL
- plasma concentration, Without hydrolysis ([1]; 0.5 mg kg-1 MDPV ip, 480 min): <LOQ
- plasma concentration, Without hydrolysis [1, 8]: <LOQ
- plasma concentration, Hydrolysis ([1]; 0.5 mg kg-1 MDPV sc, 10 min): 3.2 ng/mL
- plasma concentration, Without hydrolysis ([1]; 0.5 mg kg-1 MDPV sc, 10 min): 1.1 ng/mL
- plasma concentration, Hydrolysis ([1]; 0.5 mg kg-1 MDPV sc, 20 min): 6.1 ng/mL
- plasma concentration, Without hydrolysis ([1]; 0.5 mg kg-1 MDPV sc, 20 min): 1.2 ng/mL
- plasma concentration, Hydrolysis ([1]; 0.5 mg kg-1 MDPV sc, 30 min): 6.7 ng/mL
- plasma concentration, Without hydrolysis ([1]; 0.5 mg kg-1 MDPV sc, 30 min): 1.1 ng/mL
- plasma concentration, Hydrolysis ([1]; 0.5 mg kg-1 MDPV sc, 60 min): 11 ng/mL
- plasma concentration, Without hydrolysis ([1]; 0.5 mg kg-1 MDPV sc, 60 min): 0.9 ng/mL
- plasma concentration, Hydrolysis ([1]; 0.5 mg kg-1 MDPV sc, 120 min): 44.7 ng/mL
- plasma concentration, Without hydrolysis ([1]; 0.5 mg kg-1 MDPV sc, 120 min): 0.7 ng/mL
- plasma concentration, Hydrolysis ([1]; 0.5 mg kg-1 MDPV sc, 240 min): 54.4 ng/mL
- plasma concentration, Without hydrolysis ([1]; 0.5 mg kg-1 MDPV sc, 240 min): 0.4 ng/mL
- plasma concentration, Hydrolysis ([1]; 0.5 mg kg-1 MDPV sc, 480 min): 11 ng/mL
- plasma concentration, Without hydrolysis ([1]; 0.5 mg kg-1 MDPV sc, 480 min): <LOQ
- plasma concentration range after intraperitoneal dosing [1]: 9.3 to 84.7 ng/mL
- plasma concentration range after the subcutaneous dose [1]: 3.2 to 54.4 ng/mL
- Stability (% difference) 3 freeze-thaw cycles [2, 9]: −0.5 % difference
- Stability (% difference) 72h at 4°C [2, 9]: −1.5 % difference
- Stability (% difference) 3 freeze-thaw cycles [2, 10]: 3.5 % difference
- Stability (% difference) 72h at 4°C [2, 10]: 3.9 % difference
- Stability (% difference) 3 freeze-thaw cycles [2, 11]: −0.5 % difference
- Stability (% difference) 72h at 4°C [2, 11]: 6 % difference

SMILES: CCCC(C(=O)c1ccc2c(c1)OCO2)N1CCCC1 (centres unmarked) [MDPV, 3,4-methylenedioxypyrovalerone, reference compound]
- change of plasma concentration without the deconjugation step (hydrolysis) [1]: did not change
- plasma concentration, Without hydrolysis [1, 7]: <LOQ
- plasma concentration, Hydrolysis ([1]; 0.5 mg kg-1 MDPV ip, 10 min): 8.0 ng/mL
- plasma concentration, Without hydrolysis ([1]; 0.5 mg kg-1 MDPV ip, 10 min): 9.4 ng/mL
- plasma concentration, Hydrolysis ([1]; 0.5 mg kg-1 MDPV ip, 20 min): 6.6 ng/mL
- plasma concentration, Without hydrolysis ([1]; 0.5 mg kg-1 MDPV ip, 20 min): 7.2 ng/mL
- plasma concentration, Hydrolysis ([1]; 0.5 mg kg-1 MDPV ip, 30 min): 7.6 ng/mL
- plasma concentration, Without hydrolysis ([1]; 0.5 mg kg-1 MDPV ip, 30 min): 8.4 ng/mL
- plasma concentration, Hydrolysis ([1]; 0.5 mg kg-1 MDPV ip, 60 min): 3.6 ng/mL
- plasma concentration, Without hydrolysis ([1]; 0.5 mg kg-1 MDPV ip, 60 min): 2.9 ng/mL
- plasma concentration, Hydrolysis ([1]; 0.5 mg kg-1 MDPV ip, 120 min): 1.8 ng/mL
- plasma concentration, Without hydrolysis ([1]; 0.5 mg kg-1 MDPV ip, 120 min): 2.2 ng/mL
- plasma concentration, Hydrolysis ([1]; 0.5 mg kg-1 MDPV ip, 240 min): 1.3 ng/mL
- plasma concentration, Without hydrolysis ([1]; 0.5 mg kg-1 MDPV ip, 240 min): 0.6 ng/mL
- plasma concentration, Hydrolysis ([1]; 0.5 mg kg-1 MDPV ip, 480 min): 0.9 ng/mL
- plasma concentration, Without hydrolysis ([1]; 0.5 mg kg-1 MDPV ip, 480 min): 1.2 ng/mL
- plasma concentration, Without hydrolysis [1, 8]: <LOQ
- plasma concentration, Hydrolysis ([1]; 0.5 mg kg-1 MDPV sc, 10 min): 107.5 ng/mL
- plasma concentration, Without hydrolysis ([1]; 0.5 mg kg-1 MDPV sc, 10 min): 120.1 ng/mL
- plasma concentration, Hydrolysis ([1]; 0.5 mg kg-1 MDPV sc, 20 min): 82.1 ng/mL
- plasma concentration, Without hydrolysis ([1]; 0.5 mg kg-1 MDPV sc, 20 min): 92.9 ng/mL
- plasma concentration, Hydrolysis ([1]; 0.5 mg kg-1 MDPV sc, 30 min): 51.7 ng/mL
- plasma concentration, Without hydrolysis ([1]; 0.5 mg kg-1 MDPV sc, 30 min): 56.6 ng/mL
- plasma concentration, Hydrolysis ([1]; 0.5 mg kg-1 MDPV sc, 60 min): 38.4 ng/mL
- plasma concentration, Without hydrolysis ([1]; 0.5 mg kg-1 MDPV sc, 60 min): 34 ng/mL
- plasma concentration, Hydrolysis ([1]; 0.5 mg kg-1 MDPV sc, 120 min): 9.9 ng/mL
- plasma concentration, Without hydrolysis ([1]; 0.5 mg kg-1 MDPV sc, 120 min): 1.5 ng/mL
- plasma concentration, Hydrolysis ([1]; 0.5 mg kg-1 MDPV sc, 240 min): 4.8 ng/mL
- plasma concentration, Without hydrolysis ([1]; 0.5 mg kg-1 MDPV sc, 240 min): 3.1 ng/mL
- plasma concentration, Hydrolysis ([1]; 0.5 mg kg-1 MDPV sc, 480 min): 1.7 ng/mL
- plasma concentration, Without hydrolysis ([1]; 0.5 mg kg-1 MDPV sc, 480 min): 1.4 ng/mL
- plasma concentration range after intraperitoneal dosing [1]: 0.9 to 8.0 ng/mL
- plasma concentration range after the subcutaneous dose [1]: 1.7 to 107.5 ng/mL
- MDPV blood concentrations, human performance cases ([3]; 9 human performance cases, ref 26 (Marinetti et al.)): 6 to 368 µg/L
- MDPV blood concentrations, postmortem cases ([3]; 23 postmortem cases, ref 26 (Marinetti et al.)): 10 to 640 µg/L
- serum MDPV concentrations ([3]; Finnish drivers stopped for suspicion of driving under the influence of drugs, ref 25 (Kriikku et al.)): 20 to 8000 µg/L
- MDPV concentrations in human plasma, in most cases [3]: below 1000 μg L^−1
- Stability (% difference) 3 freeze-thaw cycles [2, 9]: 1.5 % difference
- Stability (% difference) 72h at 4°C [2, 9]: 3.5 % difference
- Stability (% difference) 3 freeze-thaw cycles [2, 10]: 3.5 % difference
- Stability (% difference) 72h at 4°C [2, 10]: 7.7 % difference
- Stability (% difference) 3 freeze-thaw cycles [2, 11]: −1.1 % difference
- Stability (% difference) 72h at 4°C [2, 11]: 2.2 % difference
- stability of MDPV in plasma, time stable ([4]; at room temperature): 27 h
- stability of MDPV in plasma, time stable ([4]; at −20°C): 600 h
- stability of MDPV in plasma, freeze-thaw cycles [4]: 3 freeze-thaw cycles
- monoamine transporter blockade (monoamine transporter): potent monoamine transporter blocker
- stability in fortified plasma [5]: stable
- concentration in plasma, horse-doping [6]: 5.8 ng/mL
